Source: patent US20250011289A1, “1H-BENZO[B]AZEPIN-2(3H)-ONE COMPOUNDS, COMPOSITIONS AND METHODS OF TREATING CANCER” (Chengdu Anticancer Bioscience, Ltd., priority 2021, published 2025)
Like-named read-outs stand apart in the source and are kept apart here.

Legend:
[1] = tested on: RPE-Neo or RPE-MYC or RPE-MYC expressing an EGFP-Histone 2B fusion protein; assay: Phenotypic screening assay (arrest in mitosis or change in DNA content, IN-Cell Analyzer); assay type: cell-based; conditions: compounds at 20 nM to 20 μM, analysed 24, 48 or 72 hours after initiation of treatment
Method: (§1) Screening was conducted as described before (Li et al. 2019). Briefly, RPE-Neo or RPE-MYC or RPE-MYC expressing an EGFP-Histone 2B fusion protein were passaged as batches of 96-well plates, 18-24 hours before exposure to the chemical compounds of the present disclosure at concentrations from 20 nM to 20 μM. At 24, 48 or 72 hours after initiation of treatment, cells were analyzed for either an arrest in mitosis or a change in DNA content by GE 1N-Cell Analyzer 2000. MTT assays of cellular proliferation were performed as previously described (Li et al. 2019).
(§2) As set forth in table 2 below, an values of greater than or equal to 1 nM and less than or equal to 1.0 μM is marked “A”; a value greater than 1.00 μM and less than or equal to 10.0 μM is marked “B”; a value greater than 10.0 μM and less than or equal to 30.0 μM is marked “C”; and a value greater than 30.0 μM and less than 1000 μM is marked “D.”

RPE-Neo or RPE-MYC cells = assay: MTT assay of cellular proliferation; assay type: cell-based; conditions: compounds at 20 nM to 20 μM; read-out: Min. Effective conc. for Proliferative arrest (>50%)
Method: Human cancer cell lines were obtained from ATCC and cultured in DMEM (Gibco, Cleveland. TN, USA) supplemented with 5% fetal bovine serum (Gibco), penicillin (100 U/mL)-streptomycin (100 μg/mL) (Gibco, Cat. No. 15140-122), 2 mM L-glutamine (Gibco, 200 mM solution, Cat. No. 25030081), and 1 mM sodium pyruvate (Gibco, 100 mM solution, Cat. No. 11360070) at 37° C. in a humidified incubator that was maintained at 5% CO2.
as §1, §2

[2] = read-out: Min. Effective conc. for Along with Cell Death
[3] = read-out: Min. Effective conc. for Mitotic Arrest (>5%)
[4] = read-out: Min. Effective conc. for Polyploidy (≥5%)

Measured: minimal effective concentration

Cc1ccc(CN2C(=O)CC(c3nnc(C4CC4)o3)=C(Br)c3ccc(F)cc32)cc1F [Compound 20-7, 5-bromo-4-(5-cyclopropyl-1,3,4-oxadiazol-2-yl)-8-fluoro-1-(3-fluoro-4-methylbenzyl)-1,3-dihydro-2H-benzo[b]azepin-2-one]
0.001 to 1 µM: [1]; [2] | [1]; [3] | [1]; [4] | RPE-Neo or RPE-MYC cells

Cc1nnc(C2=C(Br)c3ccc(F)cc3N(Cc3ccc(C)c(F)c3)C(=O)C2)o1 [Compound 20-8, 5-bromo-8-fluoro-1-(3-fluoro-4-methylbenzyl)-4-(5-methyl-1,3,4-oxadiazol-2-yl)-1,3-dihydro-2H-benzo[b]azepin-2-one]
0.001 to 1 µM: [1]; [2] | [1]; [3] | [1]; [4] | RPE-Neo or RPE-MYC cells

Cc1ccc(CN2C(=O)CC(c3nnc(C4CC4)o3)=C(Br)c3ccc(Cl)cc32)cc1F [Compound 20-9, 5-bromo-8-chloro-4-(5-cyclopropyl-1,3,4-oxadiazol-2-yl)-1-(3-fluoro-4-methylbenzyl)-1,3-dihydro-2H-benzo[b]azepin-2-one]
0.001 to 1 µM: [1]; [2] | [1]; [3] | [1]; [4] | RPE-Neo or RPE-MYC cells

Cc1nnc(C2=C(Br)c3ccc(Cl)cc3N(Cc3ccc(C)c(F)c3)C(=O)C2)o1 [Compound 20-10, 5-bromo-8-chloro-1-(3-fluoro-4-methylbenzyl)-4-(5-methyl-1,3,4-oxadiazol-2-yl)-1,3-dihydro-2H-benzo[b]azepin-2-one]
0.001 to 1 µM: [1]; [2] | [1]; [3] | [1]; [4] | RPE-Neo or RPE-MYC cells

Cc1ccc(CN2C(=O)CC(c3nnc(C4CC4)o3)=C(Br)c3ccc(C#N)cc32)cc1F [Compound 20-11, 5-bromo-4-(5-cyclopropyl-1,3,4-oxadiazol-2-yl)-1-(3-fluoro-4-methylbenzyl)-2-oxo-2,3-dihydro-1H-benzo[b]azepine-8-carbonitrile]
0.001 to 1 µM: [1]; [2] | [1]; [3] | [1]; [4] | RPE-Neo or RPE-MYC cells

Cc1ccc2c(c1)N(Cc1ccc(C)c(F)c1)C(=O)CC(c1nnc(C3CC3)o1)=C2Br [Compound 20-12, 5-bromo-4-(5-cyclopropyl-1,3,4-oxadiazol-2-yl)-1-(3-fluoro-4-methylbenzyl)-8-methyl-1,3-dihydro-2H-benzo[b]azepin-2-one]
0.001 to 1 µM: [1]; [2] | [1]; [3] | [1]; [4] | RPE-Neo or RPE-MYC cells

Cc1ccc2c(c1)N(Cc1ccc(C)c(F)c1)C(=O)CC(c1nnc(C)o1)=C2Br [Compound 20-13, 5-bromo-1-(3-fluoro-4-methylbenzyl)-8-methyl-4-(5-methyl-1,3,4-oxadiazol-2-yl)-1,3-dihydro-2H-benzo[b]azepin-2-one]
0.001 to 1 µM: [1]; [2] | [1]; [3] | [1]; [4] | RPE-Neo or RPE-MYC cells

Cc1ccc(CN2C(=O)CC(c3nnc(C4CC4)o3)=C(Br)c3ccc(C(F)(F)F)cc32)cc1F [Compound 20-14, 5-bromo-4-(5-cyclopropyl-1,3,4-oxadiazol-2-yl)-1-(3-fluoro-4-methylbenzyl)-8-(trifluoromethyl)-1,3-dihydro-2H-benzo[b]azepin-2-one]
0.001 to 1 µM: [1]; [2] | [1]; [3] | [1]; [4] | RPE-Neo or RPE-MYC cells

Cc1ccc(CN2C(=O)CC(c3nnc(C4CC4)o3)=C(Br)c3cccc(F)c32)cc1F [Compound 20-15, 5-bromo-4-(5-cyclopropyl-1,3,4-oxadiazol-2-yl)-9-fluoro-1-(3-fluoro-4-methylbenzyl)-1,3-dihydro-2H-benzo[b]azepin-2-one]
0.001 to 1 µM: [1]; [2] | [1]; [3] | [1]; [4] | RPE-Neo or RPE-MYC cells

Cc1ccc(CN2C(=O)CC(c3nnc(C4CC4)o3)=C(Br)c3c(F)cccc32)cc1F [Compound 20-16, 5-bromo-4-(5-cyclopropyl-1,3,4-oxadiazol-2-yl)-6-fluoro-1-(3-fluoro-4-methylbenzyl)-1,3-dihydro-2H-benzo[b]azepin-2-one]
0.001 to 1 µM: [1]; [2] | [1]; [3] | [1]; [4] | RPE-Neo or RPE-MYC cells

Cc1ccc(CN2C(=O)CC(c3nnc(C4CC4)o3)=C(Br)c3cc(F)ccc32)cc1F [Compound 20-17, 5-bromo-4-(5-cyclopropyl-1,3,4-oxadiazol-2-yl)-7-fluoro-1-(3-fluoro-4-methylbenzyl)-1,3-dihydro-2H-benzo[b]azepin-2-one]
0.001 to 1 µM: [1]; [2] | [1]; [3] | [1]; [4] | RPE-Neo or RPE-MYC cells

Cc1ccc(CN2C(=O)CC(c3nnc(C4CC4)o3)=C(Br)c3cccc(C)c32)cc1F [Compound 20-18, 5-bromo-4-(5-cyclopropyl-1,3,4-oxadiazol-2-yl)-1-(3-fluoro-4-methylbenzyl)-9-methyl-1,3-dihydro-2H-benzo[b]azepin-2-one]
0.001 to 1 µM: [1]; [2] | [1]; [3] | [1]; [4] | RPE-Neo or RPE-MYC cells

C#Cc1ccc2c(c1)N(Cc1ccc(C)c(F)c1)C(=O)CC(c1nnc(C3CC3)o1)=C2Br [Compound 20-20, 5-bromo-4-(5-cyclopropyl-1,3,4-oxadiazol-2-yl)-8-ethynyl-1-(3-fluoro-4-methylbenzyl)-1,3-dihydro-2H-benzo[b]azepin-2-one]
0.001 to 1 µM: [1]; [2] | [1]; [3] | [1]; [4] | RPE-Neo or RPE-MYC cells

COc1ccc(CN2C(=O)CC(c3nnc(C4CC4)o3)=C(Br)c3ccccc32)cc1 [Compound 20-21, 5-bromo-4-(5-cyclopropyl-1,3,4-oxadiazol-2-yl)-1-(4-methoxybenzyl)-1,3-dihydro-2H-benzo[b]azepin-2-one]
0.001 to 1 µM: [1]; [2] | [1]; [3] | [1]; [4] | RPE-Neo or RPE-MYC cells

Cc1ccc(CN2C(=O)CC(c3nnc(C4CC4)o3)=C(Br)c3ccc(C(N)=O)cc32)cc1F [Compound 20-22, 5-bromo-4-(5-cyclopropyl-1,3,4-oxadiazol-2-yl)-1-(3-fluoro-4-methylbenzyl)-2-oxo-2,3-dihydro-1H-benzo[b]azepine-8-carboxamide]
0.001 to 1 µM: [1]; [2] | [1]; [3] | [1]; [4] | RPE-Neo or RPE-MYC cells

Cc1ccc(CN2C(=O)CC(c3nnc(C4CC4)o3)=C(Br)c3ccc(OCCCN4CCOCC4)cc32)cc1F [Compound 20-23, 5-bromo-4-(5-cyclopropyl-1,3,4-oxadiazol-2-yl)-1-(3-fluoro-4-methylbenzyl)-8-(3-morpholinopropoxy)-1,3-dihydro-2H-benzo[b]azepin-2-one]
0.001 to 1 µM: [1]; [2] | [1]; [3] | [1]; [4] | RPE-Neo or RPE-MYC cells

COc1ccc(CN2C(=O)CC(c3nnc(C4CC4)o3)=C(Br)c3ccccc32)cc1F [Compound 20-25, 5-bromo-4-(5-cyclopropyl-1,3,4-oxadiazol-2-yl)-1-(3-fluoro-4-methoxybenzyl)-1,3-dihydro-2H-benzo[b]azepin-2-one]
0.001 to 1 µM: [1]; [2] | [1]; [3] | [1]; [4] | RPE-Neo or RPE-MYC cells

[2H]C(c1ccc(C)c(F)c1)N1C(=O)CC(c2nnc(C3CC3)o2)=C(Br)c2ccccc21 (stereo not shown) [Compound 20-26, 5-bromo-4-(5-cyclopropyl-1,3,4-oxadiazol-2-yl)-1-((3-fluoro-4-methylphenyl)methyl-d)-1,3-dihydro-2H-benzo[b]azepin-2-one]
0.001 to 1 µM: [1]; [2] | [1]; [3] | [1]; [4] | RPE-Neo or RPE-MYC cells

[2H]C([2H])(c1ccc(C)c(F)c1)N1C(=O)CC(c2nnc(C3CC3)o2)=C(Br)c2ccccc21 [Compound 20-27, 5-bromo-4-(5-cyclopropyl-1,3,4-oxadiazol-2-yl)-1-((3-fluoro-4 methylphenyl)methyl-d2)-1,3-dihydro-2H-benzo[b]azepin-2-one]
0.001 to 1 µM: [1]; [2] | [1]; [3] | [1]; [4] | RPE-Neo or RPE-MYC cells
